The source of these data is article PMC12424289, “Programmable Nanostructure Assembly of a Paclitaxel Derivative Enables Tunable Anticancer Therapy via Hydrogen Bond Engineering” (ACS Nano, 2025).

The subject of series [1] is human colon HCT116-Luc cells. As to the kind of experiment: CCK8 antiproliferation assay, HCT116-Luc. It counts as cell-based. As to conditions: 48 h treatment. As to the method:
(§1) The mouse breast cancer cell line 4T1 and the human ovarian cancer cell line SKOV3 were cultured in RPMI 1640 medium supplemented with 10% fetal bovine serum, 100 units·mL^–1 penicillin, and 100 μg·mL^–1 streptomycin. The human lung cancer cell line A549 and the luciferase-expressing human colorectal carcinoma cell line HCT116-Luc were cultured in high-glucose DMEM medium supplemented with 10% fetal bovine serum, 100 units·mL^–1 penicillin, and 100 μg·mL^–1 streptomycin. All cell lines were maintained at 37 °C in a Steri-Cycle 371 incubator (Thermo Scientific, USA) with a humidified atmosphere of 5% CO2. Only cells between passages 5 and 15 were used for cell-based experiments.
(§2) The antiproliferative activity of PTP was evaluated using the Cell Counting Kit-8 (CCK8) assay. PTX solution served as a positive control. Cell suspensions were prepared at a density of 3 × 10^4 cells·mL^–1 and seeded in 96-well plates at a volume of 100 μL per well. The plates were incubated for 24 h to allow cell attachment and growth. Subsequently, the culture media were replaced with fresh media containing varying concentrations of PTX or PTP solutions (100 μL per well), and the cells were incubated for an additional 48 h (n = 3). Control wells received fresh culture media alone (n = 3). […] Finally, the absorbance was measured at 450 nm using a microplate reader (Synergy H1, BioTek, USA). […]

The subject of series [2] is human ovarian SKOV3 cells. The series is described as follows: CCK8 antiproliferation assay, SKOV3. Format: cell-based. To be noted: SK-OV-3, SKOV3, 48 h treatment. As to the method: as §1, §2
Another series relates to mouse breast 4T1 cells. The series is described as follows: CCK8 antiproliferation assay, 4T1. To be noted: 4T1, 48 h treatment. Format: cell-based. On the procedure:
as §1, §2

The test system of a further series is human lung A549 cells. The series is described as follows: CCK8 antiproliferation assay, A549. As to conditions: A549, 48 h treatment. It counts as cell-based. As to the method: as §1, §2
The subject of another series is tubulin. As to the kind of experiment: Isothermal titration calorimetry with tubulin. As to conditions: tubulin 180 μM titrated into 25 μM compound. It counts as binding. As to the method:
ITC experiments were performed using a Nano-ITC (TA Instruments, USA) with all samples degassed for 8 min prior to measurement. Experiments were conducted under stirring at 350 rpm. To account for background signals, control experiments were conducted and subtracted from the test data. The resulting heat values were analyzed using an independent model to extract thermodynamic parameters. For tubulin binding studies, solutions were prepared in PEM buffer containing 5% (v/v) DMSO. In each experiment, 400 μL of the […] was loaded into the sample cell, and 400 μL of PEM buffer with 5% (v/v) DMSO was placed in the reference cell. Tubulin solution (180 μM) was titrated into the sample cell in 25 injections of 2 μL each at 4 °C. A control titration of tubulin into PEM buffer (5% DMSO) was performed to account for dilution effects. To assess interactions between PTP and excipients, PTP dispersions (25 μM) were loaded into the sample cell, and water was used in the reference cell. PEG400 solution (6.0 mg·mL^–1) was titrated into a 2.0 mg·mL^–1 PTP dispersion, and HA (2.7 mg·mL^–1) into a 1.0 mg·mL^–1 PTP dispersion. Both titrations were performed at 25 °C with 25 injections of 2 μL each. Control experiments were performed by titrating PEG400 or HA into water to correct for nonspecific heat effects.

The subject of a further series is Balb/c mice. The series is described as follows: Maximum tolerated dose / survival in mice. Format: in vivo, mouse. To be noted: iv, PTX 33.0 mg·kg^–1, after 14 days.
Series [3] is described as follows: Pharmacokinetics after intraperitoneal injection. It counts as in vivo. As to conditions: male, Sprague-Dawley, rat, plasma; rats, single ip; PTP@HA 100.0 mg·kg^–1 PTP, PTX solution 12.0 mg·kg^–1. On the procedure:
For plasma samples, 50 μL of plasma was mixed with 100 μL of a docetaxel acetonitrile solution (15 ng·mL^–1) for protein precipitation. The mixture was vortexed and then centrifuged at 4 °C, 17 000 rpm for 30 min. For tissue samples, mice were euthanized at specified time points, and tissues were harvested and rinsed with saline. Two kidneys, the entire heart, spleen, lung, tumor, and 150–200 mg of liver were placed in grinding tubes. Saline was added at a ratio of 1:5 (m/v), and the tissues were ground using a freezing grinder (Jingxin, China) at 4 °C. Next, 100 μL of docetaxel acetonitrile solution (15 ng·mL^–1) was added to 50 μL of the tissue homogenate. After vortex mixing, the mixture was centrifuged at 4 °C, 17 000 rpm for 30 min. The supernatants for both plasma and tissue samples were analyzed by LC-MS as described below.
The concentrations of PTP and PTX in plasma and tissue samples were determined using liquid chromatography–mass spectrometry (LC-MS) with a G6470A system (Agilent, USA) equipped with a C18 column (2.1 × 100 mm, 2.7 μm, Agilent, USA). […]
The PTP@HA hydrogel, containing PTP at a concentration of 5.0 mg·mL^–1, was prepared by adding HA saline solution (20.0 mg·mL^–1) to solid PTP, followed by vortexed for 1 min. […] Plasma concentrations of both PTP and PTX were subsequently quantified using LC-MS (G6470A, Agilent, USA).

Take `CC(=O)O[C@H]1C(=O)[C@@]2(C)[C@H]([C@H](OC(=O)c3ccccc3)[C@]3(O)C[C@H](OC(=O)[C@H](O)[C@@H](NC(=O)c4ccccc4)c4ccccc4)C(C)=C1C3(C)C)[C@]1(OC(C)=O)CO[C@@H]1C[C@@H]2O` [PTX, Paclitaxel]: the IC50 in series [1] is 13.1 nM; in series [2], 37.4 nM; with mouse breast 4T1 cells it was 25.9 nM; in the series with human lung A549 cells it was 11.3 nM. The “molar ratio of tubulin to compound” value in the series on tubulin (ITC) stood at 1.5. For the same compound, the “Gibbs free energy change (ΔG)” value with tubulin (5% DMSO, 4 °C) was −27.0 kJ·mol^–1. In addition, the survival in the series on Balb/c mice was 83.3%. Besides, the MRT in series [3] came to 4.4 h. The same compound had a half-life in series [3] of 3.2 h.
